Assay results reported in ChEMBL document CHEMBL5500381, “Antiviral drug discovery: Pyrimidine entry inhibitors for Zika and dengue viruses” (Eur J Med Chem, 2024).
Converted amounts (≈) assume the structure as drawn.

Key:
[1] = Cytotoxicity against African green monkey Vero cells assessed as cell viability measured after 72 hrs by MTT assay; format: toxicity, cell-based; conditions: chlorocebus sabaeus
[2] = Selectivity index, ratio of CC50 for cytotoxicity against African green monkey Vero cells to EC50 for anti-viral activity against DENV-2 Thailand/16681/1984 strain; format: toxicity, cell-based; conditions: read-out: Selectivity Index
[3] = test system: dengue virus type 2; experiment: Anti-viral activity against DENV-2 Thailand/16681/1984 strain infected in african green monkey Vero cells at 0.1 MOI assessed as reduction in virus yield measured after 48 hrs by virus reduction assay; format: functional, organism-based; conditions: Thailand/16681/1984, Vero
[4] = Selectivity index, ratio of CC50 for cytotoxicity against African green monkey Vero cells to EC50 for anti-viral activity against ZIKV Argentine strain INEVH116141; format: toxicity, cell-based; conditions: read-out: Selectivity Index
[5] = test system: Zika virus; experiment: Anti-viral activity against ZIKV Argentine strain INEVH116141 infected in african green monkey Vero cells at 0.1 MOI assessed as reduction in virus yield measured after 48 hrs by virus reduction assay; format: functional, organism-based
[6] = Solubility of the compound in simulated intestinal fluid (SIF,pH 6.8) incubated for 24 hrs by shake-flask method; format: ADME
[7] = Plasma stability in human plasma measured at 4 hrs; format: ADME, cell-free
[8] = Solubility of the compound in simulated gastric fluid (SGF,pH 1.2) incubated for 24 hrs by shake-flask method; format: ADME
[9] = Permeability of the compound by PAMPA assay; format: ADME
[10] = Plasma stability in mouse plasma measured at 4 hrs; format: ADME, cell-free
[11] = Solubility of the compound in phosphate-buffered saline solution (PBS,pH 7.4) incubated for 24 hrs by shake-flask method; format: physicochemical

| Compound | CC50 at 72 h [1] | selectivity ratio [2] | EC50 [3] | selectivity ratio [4] | EC50 [5] | solubility thermodynamic at 24 h [6] | Stability [7] | solubility thermodynamic at 24 h [8] | permeability [9] | Stability [10] | solubility thermodynamic at 24 h [11] |
| --- | --- | --- | --- | --- | --- | --- | --- | --- | --- | --- | --- |
| CC1(C)CC(Nc2ncnc(Nc3ccc(-c4ccccc4)cc3)n2)CC(C)(C)N1 | 5.01 µM | – | – | – | – | – | – | – | – | – | – |
| FC(F)(F)c1cc(NCc2cccnc2)nc(NCCN2CCCCC2)n1 | > 200 µM | < 4 | > 50 µM | < 4 | > 50 µM | – | – | – | – | – | – |
| CC1(C)CC(Nc2nccc(NCc3ccc(Cl)cc3)n2)CC(C)(C)N1 | 7.2 µM | 1.54 | 4.67 µM | 0.88 | 8.14 µM | – | – | – | – | – | – |
| FC(F)(F)c1cc(Nc2ccc(-c3ccccc3)cc2)nc(NCCN2CCCCC2)n1 | 5.74 µM | 7.55 | 0.76 µM | 5.12 | 1.11 µM | 10 µg/mL (≈ 22.7 µM) | Stable | 506 µg/mL (≈ 1150 µM) | Impermeable | Stable | 4 µg/mL (≈ 9.06 µM) |
| FC(F)(F)c1cc(NCc2ccc(-c3ccccc3)cc2)nc(NCCN2CCCCC2)n1 | 36.9 µM | < 2 | > 20 µM | < 2 | > 20 µM | – | – | – | – | – | – |
| CC1(C)CC(Nc2nc(C#N)cc(Nc3ccc(-c4ccccc4)cc3)n2)CC(C)(C)N1 | 7.5 µM | 3.82 | 1.96 µM | 1.7 | 4.4 µM | – | – | – | – | – | – |
| FC(F)(F)c1cc(Nc2ccc(C3CCCCC3)cc2)nc(NCCN2CCCCC2)n1 | 8.39 µM | – | – | – | – | – | – | – | – | – | – |
| Nc1ccc(-c2ccc(Nc3cc(C(F)(F)F)nc(NCCN4CCCCC4)n3)cc2)cc1 | 17.8 µM | < 2 | > 10 µM | < 2 | > 10 µM | – | – | – | – | – | – |
| CC1(C)CC(Nc2nccc(Nc3ccc(-c4ccccc4)cc3)n2)CC(C)(C)N1 | – | – | – | – | – | 580 µg/mL (≈ 1440 µM) | – | 2280 µg/mL (≈ 5690 µM) | – | – | 93 µg/mL (≈ 232 µM) |
| COc1ccc(CNc2cc(C(F)(F)F)nc(NCCN3CCCCC3)n2)cc1 | 38.2 µM | < 2 | > 20 µM | 3.07 | 12.5 µM | – | – | – | – | – | – |
| FC(F)(F)c1cc(Nc2ccc(Cl)cc2)nc(NCCN2CCCCC2)n1 | 18.8 µM | 1.88 | 10 µM | 1.88 | 10 µM | – | – | – | – | – | – |
| CC1(C)CC(Nc2nc(Nc3ccc(-c4ccccc4)cc3)c3sccc3n2)CC(C)(C)N1 | 6.4 µM | 1.3 | 4.95 µM | 1.54 | 4.15 µM | – | – | – | – | – | – |
